Assay: gradient 5% acetonitrile 3 min, to 50% in 2 min, to 85% in 15 min, held 3 min, 100 µL/min
Conditions: column: Zorbax Extend-C18 2.1 x 50 mm; eluents: water / acetonitrile, 0.1% formic acid
Summary of the method: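 Pure standards were analyzed in mixtures of ~100 molecules using HPLC coupled to a quadrupole time-of-flight mass spectrometer, in both positive and negative ionization mode. Separation used a Zorbax Extend-C18 column (2.1 × 50 mm, 1.8 μm) at 100 μL/min, with water and acetonitrile each containing 0.1% formic acid. Dead and dwell volumes were 40 μL and 900 μL, and data were collected over 3 months. Retention time was read from computationally picked adduct peaks, each inspected manually.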

Q: Which RP-LC retention time does the source give for `CCOc1cccc(-c2noc(Cn3c(=O)n(-c4ccc(OC)cc4)c(=O)c4sccc43)n2)c1` here?
A: The RP-LC retention time was 1000 s.

Q: Which RP-LC retention time does the source give for `Cn1cc(CCN2CCN(S(=O)(=O)c3ccc4c(c3)CCC4)CC2)c2cccnc21` here?
A: The RP-LC retention time was 668 s.

Q: With `Cc1cc(N2CCN(c3ccccc3)CC2)nc2ccccc12` as the molecule, how does the RP-LC retention time read?
A: Its RP-LC retention time is 710 s.

Q: Which RP-LC retention time does the source give for `CCOCc1nc(C2CCCN2C(=O)Nc2ccsc2C(=O)OC)no1` (configuration not stated) here?
A: The RP-LC retention time was 626 s.

Q: Which RP-LC retention time does the source give for `COC(=O)c1ncn2c1C(=O)N(c1ccc(C)cc1C)C(C)(C(=O)NCc1ccccc1)C2` (configuration not stated) here?
A: The RP-LC retention time was 726 s.

Q: Which RP-LC retention time does the source give for `CCOC(=O)C1CCCN(C(=O)C2CCc3nc(N(CC)CC)ncc3C2)C1` (configuration not stated) here?
A: Its RP-LC retention time is 620 s.

Q: For `Cc1noc(C)c1S(=O)(=O)N1CCCN(S(=O)(=O)c2ccccc2)CCC(=O)NCC1`, which RP-LC retention time is on record?
A: Its RP-LC retention time is 752 s.

Q: With `COc1ccc2[nH]c(=O)c(CCC(=O)NCCCN3CCCC(C)C3)cc2c1` (configuration not stated) as the molecule, how does the RP-LC retention time read?
A: Its RP-LC retention time is 585 s.

Q: Which RP-LC retention time does the source give for `O=C(Nc1cccc(Cl)c1)c1nnc(COCC(=O)N2CCN(c3ccccn3)CC2)s1` here?
A: The RP-LC retention time was 657 s.

Q: Which RP-LC retention time does the source give for `O=C(c1cc(-c2ccco2)[nH]n1)N1CCN(c2ccccn2)CC1` here?
A: Its RP-LC retention time is 583 s.

Q: With `Cn1nc(C(=O)N2CCCCC2)c2c1CCN(C(=O)CCC(=O)NCCC1=CCCCC1)C2` as the molecule, how does the RP-LC retention time read?
A: Its RP-LC retention time is 744 s.

Q: For `CCCn1cc(-c2ccncc2)cc1C(=O)NC1CC1`, which RP-LC retention time is on record?
A: The RP-LC retention time was 579 s.

Q: With `Cc1ccccc1-c1nc(C2CCN(S(=O)(=O)c3ccc(F)cc3)CC2)no1` as the molecule, how does the RP-LC retention time read?
A: The RP-LC retention time was 1180 s.

Q: With `COc1ccc(NS(=O)(=O)c2ccc(/C=C\c3onc(C)c3NC(C)=O)cc2)c(OC)c1` as the molecule, how does the RP-LC retention time read?
A: The RP-LC retention time was 777 s.

Q: With `CCCn1ncc(N2CCC(C(=O)N3CCOCC3)CC2)cc1=O` as the molecule, how does the RP-LC retention time read?
A: The RP-LC retention time was 619 s.

Q: With `Cc1nc(-c2cnccn2)nc2c1CCC(=O)N2CC1CCCO1` (configuration not stated) as the molecule, how does the RP-LC retention time read?
A: Its RP-LC retention time is 626 s.

Q: For `O=C(Cc1csc2nc(-c3ccccc3)cn12)NC1CCCc2ccccc21` (configuration not stated), which RP-LC retention time is on record?
A: Its RP-LC retention time is 851 s.

Q: With `Cc1cc2c(c(=O)n(-c3ccc(F)cc3)c(=O)n2CC(=O)Nc2ccc3c(c2)OCO3)n1C` as the molecule, how does the RP-LC retention time read?
A: The RP-LC retention time was 807 s.

Q: Which RP-LC retention time does the source give for `CCCn1cc(CCNS(=O)(=O)CC)c2cccnc21` here?
A: The RP-LC retention time was 661 s.

Q: With `Fc1ccc(-c2nc3ccccc3[nH]2)cc1` as the molecule, how does the RP-LC retention time read?
A: The RP-LC retention time was 557 s.

Q: With `Cc1ccc(Sc2nccnc2N2CCCC(C(=O)Nc3ccc(C)c(F)c3)C2)cc1` (configuration not stated) as the molecule, how does the RP-LC retention time read?
A: Its RP-LC retention time is 1260 s.

Q: With `Cc1ccc(NC(=O)C2CCN(S(=O)(=O)c3cn(C(C)C)cn3)CC2)cc1N(C)C` as the molecule, how does the RP-LC retention time read?
A: The RP-LC retention time was 597 s.

Q: For `CCCCN(CCCNC(=O)C1CCN(S(=O)(=O)CC)CC1)c1ccccc1`, which RP-LC retention time is on record?
A: The RP-LC retention time was 645 s.

Q: With `COc1cccc(C(=O)Nc2nc(-c3ccc(OC)c([N+](=O)[O-])c3)c(C)s2)c1` as the molecule, how does the RP-LC retention time read?
A: Its RP-LC retention time is 1070 s.

Q: Which RP-LC retention time does the source give for `CC(C)(C)CC(=O)N1CC(c2nc(-c3ccccc3)no2)C2(CCOCC2)C1` (configuration not stated) here?
A: The RP-LC retention time was 904 s.

Q: For `O=S(=O)(Nc1ccc(F)cc1)c1ccc2c(c1)-c1oncc1CO2`, which RP-LC retention time is on record?
A: Its RP-LC retention time is 866 s.

Q: For `Cc1ccc(-c2noc(C3CCCN3C(=O)c3ccc(C(C)C)cc3)n2)cc1` (configuration not stated), which RP-LC retention time is on record?
A: Its RP-LC retention time is 1210 s.

Q: Which RP-LC retention time does the source give for `CCCn1ccc2sc(C)c(C(=O)NCC3CCCCC3)c2c1=O` here?
A: The RP-LC retention time was 1010 s.

Q: For `CC(C)n1c(SCC(=O)N2CCCCC2)nnc1-c1ccc2c(c1)OCCCO2`, which RP-LC retention time is on record?
A: Its RP-LC retention time is 761 s.

Q: With `CC(C)c1cc(N2CCN(C(=O)c3ccc4c(c3)OCO4)CC2)nc2nncn12` as the molecule, how does the RP-LC retention time read?
A: The RP-LC retention time was 610 s.

Q: For `Cc1ccc(OCc2ccc(-c3nc(C#N)c(NCCN(C)C)o3)o2)cc1`, which RP-LC retention time is on record?
A: The RP-LC retention time was 709 s.

Q: For `CC(=O)c1ccc(NC(=O)Cn2c(-c3cnccn3)nc(C)c(C)c2=O)cc1`, which RP-LC retention time is on record?
A: The RP-LC retention time was 680 s.

Q: For `Cc1cc(Nc2ccc(Cl)cc2C)n2ncnc2n1`, which RP-LC retention time is on record?
A: Its RP-LC retention time is 806 s.

Q: For `Cc1ccc(-c2nc3nc4c(c(N5CCN(c6ccccn6)CC5)n3n2)CCC4)cc1`, which RP-LC retention time is on record?
A: Its RP-LC retention time is 684 s.

Q: Which RP-LC retention time does the source give for `O=C(Oc1ccc2c(c1)O/C(=C\c1ccncc1)C2=O)c1ccc2c(c1)OCO2` here?
A: The RP-LC retention time was 725 s.

Q: For `CCOc1cc(C(=O)Nc2nc(-c3ccc4c(c3)NC(=O)CO4)cs2)cc(OCC)c1OCC`, which RP-LC retention time is on record?
A: Its RP-LC retention time is 1030 s.

Q: For `Cc1ccc(NC(=O)CSCC(=O)N2CCC(C(N)=O)CC2)cc1`, which RP-LC retention time is on record?
A: Its RP-LC retention time is 630 s.
